Earlier results in patent publication US20260015669A1, “COMPOSITIONS AND METHODS FOR DETECTING AND TREATING TUMORS AND/OR CANCERS ASSOCIATED WITH BRAF AND/OR MAP2K1 VARIANTS” (North Carolina State University, priority 2022, published 2026).

Assays:
ΔNVTAP mutants [1] = settings: human cancer cell lines; RAF dimer inhibitors target the αC-in/DFG-out conformation
ΔNVTAP mutants [2] = target: ΔNVTAP mutants (Homo sapiens, UniProt P15056, DEL486-490); settings: human cancer cell lines; in contrast to V600E mutants; inhibitors target the αC-out/DFG-in conformation
ΔNVTAP mutants (Homo sapiens, UniProt P15056, DEL486-490), sequence (P15056 with tags, fused parts or gaps DEL486-490): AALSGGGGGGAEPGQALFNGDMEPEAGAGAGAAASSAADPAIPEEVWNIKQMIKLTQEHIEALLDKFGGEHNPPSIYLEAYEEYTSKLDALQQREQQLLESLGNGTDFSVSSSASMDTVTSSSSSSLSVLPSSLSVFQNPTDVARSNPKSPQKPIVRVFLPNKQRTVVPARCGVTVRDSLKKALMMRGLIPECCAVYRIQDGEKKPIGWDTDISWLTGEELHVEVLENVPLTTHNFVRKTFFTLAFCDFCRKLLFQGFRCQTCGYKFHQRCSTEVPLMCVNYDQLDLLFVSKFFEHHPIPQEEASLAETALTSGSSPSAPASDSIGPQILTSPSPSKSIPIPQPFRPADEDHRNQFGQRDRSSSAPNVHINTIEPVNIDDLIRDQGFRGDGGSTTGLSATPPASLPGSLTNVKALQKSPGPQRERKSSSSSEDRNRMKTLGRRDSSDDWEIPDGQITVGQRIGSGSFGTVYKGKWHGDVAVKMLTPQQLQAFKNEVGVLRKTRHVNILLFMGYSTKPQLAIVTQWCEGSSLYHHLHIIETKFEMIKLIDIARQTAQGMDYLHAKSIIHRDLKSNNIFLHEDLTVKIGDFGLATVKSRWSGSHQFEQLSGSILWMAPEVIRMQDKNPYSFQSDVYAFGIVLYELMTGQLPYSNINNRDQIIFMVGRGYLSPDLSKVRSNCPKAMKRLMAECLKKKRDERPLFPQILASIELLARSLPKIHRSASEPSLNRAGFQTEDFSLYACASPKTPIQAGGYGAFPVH

Row | Structure (SMILES) | response of mutants with exon 12 in-frame deletions to pan-RAF dimer inhibitors and allosteric MEK inhibitors (ΔNVTAP mutants [1]) | response of ΔNVTAP mutants to BRAF monomer inhibitors (ΔNVTAP mutants [2])
1 | Cc1ccc(NC(=O)c2cccc(C(C)(C)C#N)c2)cc1Nc1ccc2ncn(C)c(=O)c2c1 [AZ628] | susceptible | –
2 | CNc1ncc2cc(-c3cc(NC(=O)NCCC(C)(C)C)c(F)cc3C)c(C)nc2n1 [LY3009120] | susceptible | –
3 | O=C(c1ccc(F)c(F)c1Nc1ccc(I)cc1F)N1CC(O)([C@@H]2CCCCN2)C1 [cobimetinib] | susceptible | –
4 | CC(C)(C)c1nc(-c2cccc(NS(=O)(=O)c3c(F)cccc3F)c2F)c(-c2ccnc(N)n2)s1 [dabrafenib] | – | resistant
